Assays:
[1] = system: cholesterol biosynthesis (rat liver homogenate); assay: Inhibition of cholesterol biosynthesis: incorporation of radiolabelled acetic acid into cholesterol in rat liver homogenate; assay type: biochemical, Hannover Wistar male rats; conditions: 2 h at 37° C.
Description: The cholesterol-biosynthesis-inhibiting effect of the compounds according to the invention is illustrated by the example of 9 α-hydroxy-3-oxo-4,24(25)-stigmastadien-26-oic acid (I, wherein M stands for hydrogen). The inhibitory effect of this compound was compared with that of 3β-hydroxy-5α-cholest-8(14)-en-15-one (Colestolone) by the method of A. Endo and co-workers [Eur. J. Biochem. 77, 31 (1977); Biochem. Biophys. Acta 486, 71 (1977)] studying in rat liver homogenate the incorporation of radiolabelled acetic acid into cholesterol.
Hannover Wistar male rats weighing 50-60 g were used for the experiment. Before the experiments the animals were fed for a week with rat chew enriched with 5% cholestyramine, in a reversed light cycle (light from 4 p.m. to 4 a.m., and dark from 4 a.m. to 4 p.m.). The food and water were available ad libitum.
The animals were decapitated on the day of the experiment, Livers were immersed in ice cold Krebs/Ringer bicarbonate buffer (pH 7.4) and cut into small pieces. Using a tissue homogenizer in a gentle mode of operation we prepared a crude liver homogenate of which a portion equivalent to 100 mg of wet liver was weighed into glass-stoppered tubes. The operations were carried out under constant cooling. The incubation mixture included the liver homogenate, the Krebs/Ringer bicarbonate buffer, the sodium-(1-^14 C)acetate (supplied by IZINTA; specific activity: 14.86 MBq/mg) and the (^3 H)cholesterol oleate (supplied by Du Pont; specific activity: 3067 GBq/mmole). The steroids inhibiting cholesterol biosynthesis were added to the incubation mixture in an alcoholic solution containing albumin, as described by G. J. Schroepfer and co-workers [J. Biol. Chem. 24, 8975 (1977)]. The final volume of the incubation mixture was 2.0 ml. Incubation went on for 2 hours in a water bath of 37° C., then 2 ml of alcohol containing 15% (w/v) of KOH were added to the mixture, which was then kept at 70°-75° C. for further 2 hours. The lipids were extracted from the alkaline mixture by petroleum ether. After evaporation of the solvent in nitrogen stream the dry residue was dissolved in a mixture of acetone and ethanol, then the cholesterol was precipitated by a solution of digitonin. The precipitate was centrifuged and dissolved in scintillation cocktail. The activity was measured for 5 minutes using a Hitachi scintillation spectrometer.

serum cholesterol = conditions: several animal species and humans, literature; cited from earlier work

SMILES | Inhibition, % ([1]; concentration 2.5 μM) | Inhibition, % ([1]; concentration 10.0 μM) | serum cholesterol-lowering effect (serum cholesterol)
CCC(CC[C@@H](C)[C@H]1CC[C@H]2[C@@H]3CCC4=CC(=O)CC[C@]4(C)[C@@]3(O)CC[C@]12C)=C(C)C(=O)O [9α-hydroxy-3-oxo-4,24(25)-stigmastadien-26-oic acid] | 65.3% | 86.3% | –
CC(C)CCC[C@@H](C)[C@H]1CC(=O)C2=C3CC[C@H]4C[C@@H](O)CC[C@]4(C)[C@H]3CC[C@@]21C [3β-Hydroxy-5α-cholest-8(14)-en-15-one, 3β-hydroxy-5α-cholest-8(14)-en-15-one] | 16.6% | 55.0% | significant serum cholesterol-lowering effect

Reference: patent US5112815A, “9α-hydroxy-3-oxo-4,24(25)-stigmastadien-26-oic acid derivatives, a process for preparing same and pharmaceutical compositions containing same” (Richer Gedeon Vegyeszet, priority 1989, dated 1992)
